Where two headings read alike, the source gives them in different places.
Tests used:
[1] = system: Caco-2 cells; details: cited from earlier work
[2] = system: Src; details: at 10 μM; cited from earlier work
[3] = system: Pyk2; details: at 10 μM; cited from earlier work
[4] = system: gut mucosal wound; details: cited from earlier work
[5] = system: Caco-2 cells; details: for wound closure with proliferation inhibited: 100 nM, 4 mM hydroxyurea, 24 h, Caco-2 monolayers, n=33–35, p<0.05 vs vehicle; for EC50: read-out: EC50 (nM), ± SEM, wound healing, Caco-2 assay
[6] = molecular target: hERG (Homo sapiens, UniProt Q12809); details: at 30 μM
Chain of hERG (Q12809 whole entry): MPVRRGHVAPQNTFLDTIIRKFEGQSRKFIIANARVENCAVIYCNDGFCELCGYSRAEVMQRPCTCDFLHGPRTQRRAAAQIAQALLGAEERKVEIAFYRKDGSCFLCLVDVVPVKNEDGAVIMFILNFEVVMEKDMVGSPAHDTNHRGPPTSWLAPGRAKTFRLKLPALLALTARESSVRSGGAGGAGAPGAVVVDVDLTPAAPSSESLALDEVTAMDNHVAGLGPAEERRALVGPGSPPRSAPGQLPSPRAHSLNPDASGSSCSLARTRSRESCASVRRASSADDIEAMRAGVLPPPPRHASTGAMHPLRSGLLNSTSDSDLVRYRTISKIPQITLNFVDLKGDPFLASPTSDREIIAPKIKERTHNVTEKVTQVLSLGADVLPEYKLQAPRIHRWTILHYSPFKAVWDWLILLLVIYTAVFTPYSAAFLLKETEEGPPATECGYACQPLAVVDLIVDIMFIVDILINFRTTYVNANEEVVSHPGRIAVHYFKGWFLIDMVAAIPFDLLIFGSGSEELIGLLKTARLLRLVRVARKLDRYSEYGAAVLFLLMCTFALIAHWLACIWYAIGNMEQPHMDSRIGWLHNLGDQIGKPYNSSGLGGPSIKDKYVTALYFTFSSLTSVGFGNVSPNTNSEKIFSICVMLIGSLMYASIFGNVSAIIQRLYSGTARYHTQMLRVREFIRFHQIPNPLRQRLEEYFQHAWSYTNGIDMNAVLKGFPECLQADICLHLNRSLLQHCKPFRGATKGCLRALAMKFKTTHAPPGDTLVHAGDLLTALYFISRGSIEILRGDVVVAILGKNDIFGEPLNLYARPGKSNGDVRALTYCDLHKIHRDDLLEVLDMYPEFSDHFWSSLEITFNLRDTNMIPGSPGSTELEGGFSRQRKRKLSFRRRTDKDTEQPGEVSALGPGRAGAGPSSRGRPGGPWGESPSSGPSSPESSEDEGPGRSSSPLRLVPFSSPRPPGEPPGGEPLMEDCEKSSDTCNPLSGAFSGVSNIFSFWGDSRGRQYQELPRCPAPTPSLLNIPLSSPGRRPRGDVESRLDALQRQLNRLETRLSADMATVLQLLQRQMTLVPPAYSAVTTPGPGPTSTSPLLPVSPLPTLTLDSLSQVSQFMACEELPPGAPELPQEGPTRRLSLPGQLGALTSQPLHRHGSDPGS

[7] = for Clint: intrinsic clearance; for MLM t1/2: mouse liver microsomes
[8] = PBS at pH = 7.4
[9] = rat plasma
[10] = at concentrations 10,000x higher than the effective dose; cited from earlier work
[11] = after four days of continuous administration; cited from earlier work
[12] = cited from earlier work
[13] = cited from earlier work; remark: listed apart in the source
[14] = molecular target: FAK (Homo sapiens, UniProt Q05397); details: 1 h, relative to vehicle control, n = 8 measurements
Chain of FAK (Q05397 whole entry): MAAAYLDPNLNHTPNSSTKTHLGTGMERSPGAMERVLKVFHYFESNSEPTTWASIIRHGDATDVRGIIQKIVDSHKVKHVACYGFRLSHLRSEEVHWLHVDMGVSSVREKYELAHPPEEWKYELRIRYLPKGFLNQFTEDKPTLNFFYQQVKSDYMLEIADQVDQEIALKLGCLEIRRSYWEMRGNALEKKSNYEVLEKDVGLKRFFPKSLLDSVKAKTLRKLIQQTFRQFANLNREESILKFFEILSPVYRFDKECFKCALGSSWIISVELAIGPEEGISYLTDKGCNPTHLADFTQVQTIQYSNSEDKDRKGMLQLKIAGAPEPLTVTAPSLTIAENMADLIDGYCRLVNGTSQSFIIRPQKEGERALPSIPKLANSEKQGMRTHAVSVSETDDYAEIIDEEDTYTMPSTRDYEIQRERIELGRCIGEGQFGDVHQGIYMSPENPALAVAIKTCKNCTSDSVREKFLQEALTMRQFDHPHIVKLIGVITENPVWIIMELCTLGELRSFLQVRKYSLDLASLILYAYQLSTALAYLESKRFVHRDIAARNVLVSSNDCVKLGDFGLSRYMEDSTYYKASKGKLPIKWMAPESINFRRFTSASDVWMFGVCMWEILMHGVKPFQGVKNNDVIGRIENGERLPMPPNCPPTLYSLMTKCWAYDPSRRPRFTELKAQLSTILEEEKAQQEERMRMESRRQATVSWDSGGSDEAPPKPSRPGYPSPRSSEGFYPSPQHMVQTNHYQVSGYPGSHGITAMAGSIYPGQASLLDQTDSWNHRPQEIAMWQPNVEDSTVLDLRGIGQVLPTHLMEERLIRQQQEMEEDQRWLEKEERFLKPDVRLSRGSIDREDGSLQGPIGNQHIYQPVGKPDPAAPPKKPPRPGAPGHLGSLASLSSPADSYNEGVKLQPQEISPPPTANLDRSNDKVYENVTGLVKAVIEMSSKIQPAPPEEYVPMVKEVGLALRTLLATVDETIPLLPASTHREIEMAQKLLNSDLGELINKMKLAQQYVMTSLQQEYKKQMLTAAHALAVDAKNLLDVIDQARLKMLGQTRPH

CN(C)C(CNC(=O)Nc1cc(C(F)(F)F)ccc1N1CCOCC1)c1ccncc1 (stereo not shown) [Compound 5a, 1-(2-(dimethylamino)-2-(pyridin-4-yl)ethyl)-3-(2-morpholino-5-(trifluoromethyl)phenyl)urea]
epithelial sheet migration in vitro [1]: induces epithelial sheet migration
Src activation [2]: does not activate
Pyk2 activation [3]: does not activate
gut mucosal wound healing in vivo [4]: stimulates gut mucosal wound healing

CN(C)C(CNC(=O)Nc1cc(C(F)(F)F)ccc1N1CCOCC1)c1ccncc1.Cl (stereo not shown) [Compound 5aHCl, 1-(2-(dimethylamino)-2-(pyridin-4-yl)ethyl)-3-(2-morpholino-5-(trifluoromethyl)phenyl)urea hydrochloric salt]
wound closure with proliferation inhibited [5]: accelerated
EC50 [5]: 3.01 ± 0.52 nM
hERG Inhibition % [6]: 4.87%
Clint [7]: > 307 uL/min/mg protein
MLM t1/2 [7]: < 4.51 min
Solubility [8]: 1074 µg/mL
area under the curve ([9]; 10 mg/kg oral gavage): 3149 µg·h/mL
time of Cmax ([9]; 10 mg/kg oral gavage): 1 h
maximum concentration (Cmax) ([9]; 10 mg/kg oral gavage in saline, n = 4): 967 ng/mL
in vitro cytotoxicity [10]: no in vitro cytotoxicity
in vivo toxicity [11]: no in vivo toxicity
water solubility [12]: water-soluble
oral bioavailability [13]: orally bioavailable

CN(C)C(CNC(=O)Nc1cc(F)ccc1N1CCOCC1)c1ccncc1.Cl (stereo not shown) [Compound 10bHCl, 1-(2-(Dimethylamino)-2-(pyridin-4-yl)ethyl)-3-(5-fluoro-2-morpholinophenyl)urea hydrochloric salt]
FAK-Tyr-397/FAK fold change, ± SEM ([14]; 10 nM): 1.25 fold change
FAK-Tyr-397/FAK fold change, ± SEM ([14]; 100 nM): 1.39 fold change
wound closure with proliferation inhibited [5]: accelerated
EC50 [5]: 2.36 ± 0.58 nM
hERG Inhibition % [6]: 15.2%
Clint [7]: > 307 uL/min/mg protein
MLM t1/2 [7]: <4.51 min
Solubility [8]: 985 µg/mL

COCCOCCOc1ccc(N2CCOCC2)c(NC(=O)NCC(c2ccncc2)N(C)C)c1.Cl (stereo not shown) [Compound 10kHCl, 1-(2-(Dimethylamino)-2-(pyridin-4-yl)ethyl)-3-(5-(2-(2-methoxyethoxy)ethoxy)-2-morpholinophenyl)urea hydrochloric salt]
wound closure with proliferation inhibited [5]: accelerated
EC50 [5]: 3.01 ± 0.51 nM
hERG Inhibition % [6]: 0.608%
Clint [7]: 93.0 uL/min/mg protein
MLM t1/2 [7]: 14.9 min
Solubility [8]: 1018 µg/mL

From article PMC12866986 (European journal of medicinal chemistry, 2026)
